The molecules below were run on MALME3 melanoma viability, CellTiter-Glo luminescence, 24 h (assay: MALME3 melanoma cell viability loss, dose response, orthogonal assay for MITF inhibitor project, CellTiter-Glo, cherry-picked (AID 493191)).
Molecule `O=C(N/N=C/c1ccc([N+](=O)[O-])o1)c1ccc(O)cc1` has an AC50 of 10.9 µM. `O=C(N/N=C/c1ccc([N+](=O)[O-])s1)C(O)c1ccccc1` (centres undefined) showed an AC50 of 22.7 µM. With `CS(=O)(=O)c1ccc(S(=O)CC(=O)OCc2ccccc2)c([N+](=O)[O-])c1` (centres undefined) the AC50 was 20 µM. Molecule `CCOC(=O)N1C(=O)[C@@](CC)(c2ccccc2)N1C(=O)OCC` has an AC50 of 26.2 µM. Molecule `CC(C)C1CC(CCNCc2ccc(N(C)C)cc2)(c2ccccc2)CCO1` (centres undefined) has an AC50 of 29.5 µM. With `CC(=O)Cn1ncc(Br)c(Br)c1=O` the AC50 was 14.6 µM. `O=C(Nc1ccc2oc(-c3cccnc3)nc2c1)c1ccc([N+](=O)[O-])o1` gave an AC50 of 25.9 µM. With `N=c1n(CCN2CCCC2)c2ccccc2n1CC(O)c1ccc(Cl)c(Cl)c1` (centres undefined) the AC50 was 22.5 µM. Work on `CC(C)=NOc1cc(NC(=O)CCl)cc([N+](=O)[O-])c1` yielded an AC50 of 5.64 µM. `O=[N+]([O-])c1ccc(/C=N/N=C/c2ccc([N+](=O)[O-])o2)o1` showed an AC50 of 12.9 µM. Molecule `N#CCc1ccc(NC(=O)/C=C/c2ccc([N+](=O)[O-])o2)cc1` has an AC50 of 10.4 µM. For `O=C(c1ccccc1)c1cc(Cl)ccc1N1C(=O)C=CC1=O`, the AC50 was 9.06 µM. `Oc1cc(NCCN2CCOCC2)cc2cccnc12` gave an AC50 of 24.6 µM. With `CCc1cc[n+](C2=C([O-])c3ccccc3C(=O)/C2=N\S(=O)(=O)c2cccs2)cc1` the AC50 was 4.51 µM. `N#CC(C#N)=C1C=CC=CN1/C(=C\c1ccco1)C(=O)c1ccc(Cl)cc1` showed an AC50 of 27.3 µM. Molecule `CCN(CC)CCNC(=O)c1c(C)n(-c2ccccc2)c2cc(Br)c(OC)cc12` has an AC50 of 18.9 µM. `Cc1ccc2sc(N(CCCN(C)C)C(=O)c3ccc(S(=O)(=O)N(C)C4CCCCC4)cc3)nc2c1C` gave an AC50 of 18.1 µM. `CS(=O)(=O)N1CCN(c2ccc(NC(=O)c3ccc([N+](=O)[O-])o3)cc2)CC1` showed an AC50 of 16.7 µM. Work on `COc1cc(/C=N/NC(N)=O)c(Br)cc1OCC(=O)Nc1ccccc1C` yielded an AC50 of 29.4 µM. Work on `O=C(N/N=C\c1ccc([N+](=O)[O-])s1)c1cncc(Br)c1` yielded an AC50 of 20.2 µM. `COc1cc(/C=N/N=C(N)N)ccc1OCc1ccc(Cl)cc1` was tested, and the AC50 was 19.9 µM. `C=CCNC1=C(Cl)C(=O)c2ccccc2C1=O` was tested, and the AC50 was 15.6 µM. With `Cc1ccc(-c2nc(C(=O)NCCCN(C)C)cc3c2[nH]c2ccccc23)cc1` the AC50 was 31.1 µM. `Cc1ccc(C(=O)N/C(=C\c2ccc(-c3ccc(Br)cc3)o2)C(=O)NCCCN(C)C)cc1` gave an AC50 of 14.2 µM. `O=C(Nc1ccc(N2CCN(C(=O)c3ccc(Cl)cc3)CC2)cc1)c1ccc([N+](=O)[O-])o1` gave an AC50 of 16.7 µM. Molecule `Cc1ccc(C(C)C)c(OCc2nn(CC(=O)c3ccc(OC(F)F)cc3)c3[n+]2CCCCC3)c1` has an AC50 of 24.2 µM. `Cc1cccc(NC2=C(NC(=O)c3ccccc3)C(=O)c3ccccc3C2=O)c1` was tested, and the AC50 was 25.3 µM. For `Cc1ccc(Cn2c(=N)n(CC(=O)c3ccc([N+](=O)[O-])cc3)c3ccccc32)cc1`, the AC50 was 18.6 µM. With `Cc1ccc(NC(=O)CN(C)C(=O)Cn2ncc(Cl)c(Cl)c2=O)cc1` the AC50 was 8.81 µM. In the case of `COc1ccc(-n2c(C)cc(C(=O)CCl)c2C)cc1`, the AC50 is reported as 19.3 µM. Molecule `CC(NC(=O)c1ccc([N+](=O)[O-])o1)C12CC3CC(CC(C3)C1)C2` (centres undefined) has an AC50 of 31.9 µM. `CC(C)(C)c1ccc(OCCCNCc2ccccc2)cc1` showed an AC50 of 27.4 µM. Molecule `CCN(CC)CCn1nc2c3c(cccc3c1=O)-c1ccccc1-2` has an AC50 of 28.4 µM. `CC(=O)Nc1ccc(Nc2c3ccccc3nc3ccccc23)cc1` gave an AC50 of 25.2 µM. Work on `CC(C)(C)C(=O)Cn1ncc(Cl)c(Cl)c1=O` yielded an AC50 of 18 µM. Work on `O=C(/C=C/c1cccc([N+](=O)[O-])c1)c1cccs1` yielded an AC50 of 33.1 µM. For `CCOC(=O)c1cc([N+](=O)[O-])c([N+](=O)[O-])cc1NC(C)=O`, the AC50 was 29.9 µM. Molecule `O=C1Nc2cc(C(=O)NCCN3CCCCCC3)ccc2S/C1=C\c1ccccc1` has an AC50 of 28.4 µM. Work on `Cc1ccc(-c2nnc(SCC(=O)Nc3ccccc3F)o2)cc1` yielded an AC50 of 19.7 µM. For `CCCC(=O)N1CCN(c2ccc(NC(=O)c3ccc([N+](=O)[O-])o3)cc2)CC1`, the AC50 was 8.62 µM. `CCCCN1C=CC(=C2C(=O)c3ccccc3C2=O)C=C1` gave an AC50 of 27.3 µM. `CCOc1cc(/C=N/N=C(N)N)ccc1OCc1ccc(Cl)cc1` was tested, and the AC50 was 18.8 µM. Molecule `O=C1/C(=C/c2ccccc2[N+](=O)[O-])COc2ccccc21` has an AC50 of 25.3 µM. Work on `CC(C)Oc1ccc(C(CCN)C2CCCCC2)cc1` (centres undefined) yielded an AC50 of 14.6 µM. With `COC1=C(Nc2ccc(O)cc2)C(=O)c2ccccc2C1=O` the AC50 was 14.3 µM. `CN(C)c1nc(C=C(C#N)C#N)c(Cl)n1-c1ccc(F)cc1` showed an AC50 of 21.2 µM. For `Cc1ccc(C(C)C)c(OCc2nn(CC(=O)c3ccc(Cl)cc3)c3[n+]2CCCCC3)c1`, the AC50 was 18.4 µM. `O=C(N/N=C\c1ccc([N+](=O)[O-])o1)C1COc2ccccc2O1` (centres undefined) was tested, and the AC50 was 32.7 µM. `Cn1nnnc1Sc1ncnc2scc(-c3ccc(C#N)cc3)c12` showed an AC50 of 28.5 µM. With `Cc1cc(NC(=O)c2cncc(Br)c2)ccc1NC(=O)c1cc2ccccc2o1` the AC50 was 17 µM. `O=C(Cn1ncc(Cl)c(Cl)c1=O)N1CCN(Cc2ccccc2)CC1` gave an AC50 of 8.57 µM. `Cc1cc(Br)ccc1NC(=O)CNC(=O)Cn1ncc(Cl)c(Cl)c1=O` gave an AC50 of 5.54 µM. With `OC(CNCC(c1ccc(Cl)cc1Cl)c1c[nH]c2ccccc12)c1ccccc1` (centres undefined) the AC50 was 19.1 µM. `CCC(C)(C)c1ccc(OCCCC[n+]2ccccc2)c(C(C)(C)CC)c1` showed an AC50 of 10.8 µM. Work on `COc1cc(NC(=O)c2[nH]cnc2C(N)=O)cc(C(=O)Nc2cccc(C(F)(F)F)c2)c1` yielded an AC50 of 11.2 µM. Work on `O=C(CNc1cccc([N+](=O)[O-])c1)N/N=C/c1ccc([N+](=O)[O-])o1` yielded an AC50 of 16.9 µM. For `Cc1ccccc1OCc1n(CC(=O)OC2CC(C)CCC2C(C)C)c2ccccc2[n+]1C` (centres undefined), the AC50 was 9.18 µM. `O=C(CS(=O)c1ccc(C(F)(F)F)cc1[N+](=O)[O-])Oc1ccccc1` (centres undefined) showed an AC50 of 20.7 µM. Molecule `CCN(CC)CCCNC1=C(Cl)C(=O)c2ccccc2C1=O` has an AC50 of 5.64 µM. `CC(C)(c1ccccc1)c1ccc(OCC(O)CNC2CCN(Cc3ccccc3)CC2)cc1` (centres undefined) gave an AC50 of 13.5 µM. `CN1CCN(C2=C(NS(=O)(=O)c3ccccc3)C(=O)c3ccccc3C2=O)CC1` showed an AC50 of 11.2 µM. `Cc1ccc(NC(=O)c2cc(N3C(=O)C=CC3=O)ccc2N2CCOCC2)cc1` showed an AC50 of 10.1 µM. Molecule `Cc1ccccc1C(=O)N1CCN(c2ccc(NC(=O)c3ccc([N+](=O)[O-])o3)cc2)CC1` has an AC50 of 9.64 µM. Molecule `COc1ccc(C(=O)/C=C/C(=O)N(CC(=O)NC2CCCCC2)CC2CCCO2)c(O)c1` (centres undefined) has an AC50 of 4.8 µM. For `O=C(COC(=O)c1ccccc1C(=O)c1ccc(Cl)c([N+](=O)[O-])c1)NC1CC1`, the AC50 was 15.6 µM. Molecule `O=C(N/N=C/c1cccc2cccnc12)c1ccccc1O` has an AC50 of 29.7 µM. Molecule `O=C(Cn1ncc(Cl)c(Cl)c1=O)Nc1ccc2c(c1)OCO2` has an AC50 of 25.1 µM. Molecule `N=c1n(CC(=O)c2ccc([N+](=O)[O-])cc2)c2ccccc2n1Cc1ccccc1` has an AC50 of 25.4 µM. Molecule `COc1ccccc1NC(=O)c1nc(S(=O)(=O)Cc2ccccc2)ncc1Cl` has an AC50 of 6.97 µM. Work on `Cc1ccc(-n2nnnc2CNC(=O)c2ccc([N+](=O)[O-])o2)cc1C` yielded an AC50 of 21.5 µM. With `CC(C)C(CCNC1CCN(C)CC1)c1ccc(Cl)cc1` (centres undefined) the AC50 was 24.3 µM. In the case of `Cc1ccc(-n2cc(CNCCCn3ccnc3C)c(-c3ccc(F)cc3)n2)cc1`, the AC50 is reported as 15.8 µM. For `O=C(NC1=C(Nc2ccc(Cl)cc2)C(=O)c2ccccc2C1=O)c1ccccc1`, the AC50 was 20.3 µM. With `N#CC(C#N)=C1C=CC=CN1/C(=C\c1ccco1)C(=O)c1ccc(Br)cc1` the AC50 was 24.6 µM. For `CCN(CC)CCNC(=O)C1CCN(S(=O)(=O)c2c(C)noc2/C=C/c2ccccc2F)CC1`, the AC50 was 30.4 µM. `Cc1ccc(NC(=O)c2ccc([N+](=O)[O-])o2)cc1S(=O)(=O)N1CCOCC1` was tested, and the AC50 was 26.1 µM. For `CCOC(=O)c1c(C)oc2c(F)c(F)c(F)c(F)c2c1=O`, the AC50 was 19.4 µM. `O=C(CCl)Nc1cccc(Oc2ccccc2)c1` gave an AC50 of 28.7 µM. For `O=C(CNC(=O)c1ccccc1)N/N=C/c1ccc([N+](=O)[O-])s1`, the AC50 was 26.2 µM. Work on `Cc1nc2ccccc2n1/N=C/c1ccc([N+](=O)[O-])s1` yielded an AC50 of 26.4 µM. `CCn1c(=O)c([N+](=O)[O-])c(Cl)c2ccccc21` gave an AC50 of 27.9 µM. For `CN(C(=O)/C=C/c1ccc([N+](=O)[O-])s1)c1ccccc1`, the AC50 was 34.4 µM. `O=C(Nc1cccc(S(=O)(=O)N2CCCCC2)c1)c1ccc([N+](=O)[O-])o1` showed an AC50 of 15.9 µM. In the case of `CCOC(=O)c1cc2sccc2n1CC(=O)N1c2ccccc2CC1C` (centres undefined), the AC50 is reported as 25 µM. Work on `O=C(CCl)N(c1ccccc1)C1CCCCC1` yielded an AC50 of 20.1 µM. For `CCOC(=O)c1c(C)oc2c1C(=O)c1ccccc1C2=O`, the AC50 was 7.25 µM. With `Cc1c(NC(=O)c2ccc([N+](=O)[O-])o2)cccc1-c1nc2ncccc2o1` the AC50 was 15.4 µM. For `O=C(CCl)N1CCN(S(=O)(=O)c2ccc3c(c2)CCC3)CC1`, the AC50 was 25.5 µM. Molecule `O=C(Nc1cc(-c2nc3ncccc3o2)ccc1Cl)c1ccc([N+](=O)[O-])o1` has an AC50 of 18.2 µM. `CNC(=O)COC(=O)c1ccccc1C(=O)c1ccc(Cl)c([N+](=O)[O-])c1` showed an AC50 of 23.8 µM. Molecule `O=[N+]([O-])c1ccc(/C=N/n2cnc3ccccc32)s1` has an AC50 of 8.99 µM. With `Cc1c(N=C2C=CC(=O)c3ccccc32)c(=O)n(-c2ccccc2)n1C` the AC50 was 32 µM. `CCCC(=O)N1CCN(c2ccc(NC(=O)c3ccc([N+](=O)[O-])o3)cc2Cl)CC1` gave an AC50 of 14.4 µM. Molecule `CCN1/C(=C/c2cc[n+](C)cc2)C=Cc2cc(C)ccc21` has an AC50 of 16.9 µM. `O=C(NC1CCCC(C(F)(F)F)C1)c1ccc([N+](=O)[O-])o1` (centres undefined) gave an AC50 of 20.8 µM. `CC(=O)N(C)C1=C(N2CCOCC2)C(=O)c2ccccc2C1=O` showed an AC50 of 12.7 µM. `Cc1oc(-c2ccc(Cl)cc2)nc1CN1CCC(C(=O)NCCCN2CCCC(C)C2)CC1` (centres undefined) showed an AC50 of 24.4 µM. `CN(C)CC1CC/C(=C\c2ccc(O)cc2)C1=O` (centres undefined) gave an AC50 of 25.9 µM. With `CC(=O)c1c(C)oc2c1C(=O)c1ccccc1C2=O` the AC50 was 21.2 µM. `COc1cccc(/C=N/Nc2ccc(C(=O)O)cc2)c1O` showed an AC50 of 33.2 µM. Molecule `Cc1nc2ccccn2c1C(=O)N/N=C/c1ccc([N+](=O)[O-])o1` has an AC50 of 34 µM. Molecule `Cc1c(CCOC(=O)c2ccc(Cl)cc2Cl)sc[n+]1CC(=O)c1ccc(Br)cc1` has an AC50 of 29.3 µM. With `O=c1c(Cl)c(Cl)cnn1-c1ccccc1` the AC50 was 5.84 µM. For `O=C(Cn1ncc(Cl)c(Cl)c1=O)NC1CCCCC1`, the AC50 was 24.8 µM. `O=[N+]([O-])c1cccc2c(N3CCCC3)ccnc12` gave an AC50 of 4.82 µM. `O=C(COc1ccccc1)N/N=C/c1ccc([N+](=O)[O-])o1` was tested, and the AC50 was 18.6 µM. `CC1CC2(C)Oc3ccccc3CC2C(C)C1CNCCCN(C)C` (centres undefined) gave an AC50 of 15.9 µM. In the case of `Nc1c(N(CCC2=CCCCC2)C(=O)COc2ccc(F)cc2)c(=O)[nH]c(=O)n1Cc1ccccc1`, the AC50 is reported as 15.8 µM. With `CCN1CCN(C2=C(NS(=O)(=O)c3ccc(Br)cc3)C(=O)c3ccccc3C2=O)CC1` the AC50 was 20.1 µM.
